{
  "source": "patent US9983218B2",
  "about": "“Indole and indoline derivatives and methods of use thereof” (AbbVie Inc., priority 2008, dated 2018)",
  "key": {"[1]": {"test_system": "mouse model of multiple sclerosis", "conditions": "in vivo administration; cited from earlier work"}, "[2]": {"test_system": "PC12 cells", "experiment": "Number of neuron-like cells in nerve growth factor-differentiated PC12 cells (HCS microscopy)", "format": "cell-based", "conditions": "NGF-differentiated PC12 cells, 24 hours post-treatment, normalized to 10 μM dimebolin; FIG. 1", "method": "For example, studies were conducted using PC12 cells plated in 96-well plates, treated with or without nerve growth factor (100 ng/mL) for 6 days. Compounds were then added at various concentrations (ranging from 0.1 nM to 30 μM), and incubated for 24 hours. Cells were then fixed and stained by neuron marker β-tubulin (green), and nuclei were stained by Hoechst 33342 (blue). Images were collected using the ImageXpress Micro automatic fluorescent microscopy system (Molecular Devices, Sunnyvale, Calif.) employing a Nikon 10× Plan Fluor objective and Cool Snap HQ CCD camera. The Neurite Outgrowth module in the MetaMorph Imaging software was used to automatically count neuron-like number, and the extent of neurite outgrowth (See, FIG. 1)."}},
  "data": [
    {"smiles": "O=C1C=C(c2ccccc2)C(=O)N1c1cccc(Cl)c1", "note": "[1-(3-chlorophenyl)-3-phenyl-pyrrole-2,5-dione]", "values": [
      {"measurement": "development of the disease", "setting": "[1]", "result": "significantly prevented the development of the disease"}
    ]},
    {"smiles": "Cc1ccc2c(c1)c1c(n2CCc2ccc(C)nc2)CC2CCC1N2C", "note": "(centres unmarked) [Example 1, 2,11-dimethyl-5-[2-(6-methylpyridin-3-yl)ethyl]-5,6,7,8,9,10-hexahydro-7,10-epiminocyclohepta[b]indole]", "values": [
      {"measurement": "number of neuron-like cells", "setting": "[2]", "result": "concentration-dependent effects"}
    ]}
  ]
}
